In US11919865B2, “Processes for preparing AG-10, its intermediates, and salts thereof” (EIDOS THERAPEUTICS, INC., priority 2017, dated 2024):
“And” between values parts separate entries of the source, which are not always exact repeats. Equal entries are not always repeated. Each block holds one compound with its values, some of them ahead of it.

Columns and labels:
[1] = Bioavailability of AG-10, mean plasma concentration after intravenous and oral dosing; assay type: in vivo; conditions: 1 mg/kg intravenously and 5 mg/kg orally, plasma 0-24 hours
Protocol: The mean plasma concentration of AG-10 was measured from 0-24 hours after dosing with 1 mg/kg of AG-10 intravenously and 5 mg/kg of AG-10 orally. The calculated pharmacokinetic data is shown in FIG. 2B, FIG. 2D, and FIG. 2F.

[2] = Bioavailability of AG-10 in male and female dogs at different oral dosing levels; assay type: in vivo; conditions: oral 5 mg/kg or 20 mg/kg, plasma 2-24 hours
Protocol: The mean plasma concentration of AG-10 was measured from 2-24 hours after oral dosing with 5 mg/kg or 20 mg/kg of AG-10. The calculated pharmacokinetic data is shown in FIG. 3B, FIG. 3D and FIG. 3F.

[3] = Oral dosing of AG-10 forms, plasma pharmacokinetics by LC-MS/MS; assay type: in vivo, Rat
Protocol: (§1) Rats or Dogs were orally dosed with the zwitterion, Na salt, or HCl salt for of AG-10. Plasma samples from each rat/dog, as applicable, were measured between 0 and up to 96 hours after dosing with the specified form of AG-10. After isolation from the animal, each sample (50 μL) was protein precipitated by adding 500 μL 0.1% formamide in acetonitrile to the sample. After addition for the formamide solution, the sample was vortexed and centrifuging at 1400 rpm for 15 min at 4° C. 100 μL of the supernatant was removed and diluted with 100 μL water. 5 μL of the diluted sample was injected for LC-MS/MS analysis.

[4] = Intravenous dosing of AG-10 forms, plasma pharmacokinetics by LC-MS/MS; conditions: in vivo, dog, 1 mg/kg, the Cmax reported is an extrapolated C0
Protocol: as §1, with “Mice, Rats” for “Rats”, “were intravenously” for “were orally”, “each mouse/rat/dog,” for “each rat/dog,”, “and 24” for “and up to 96”, “diluted samples” for “diluted sample”

[5] = as above; assay type: in vivo
Protocol: as §1, with “Mice, Rats” for “Rats”, “were intravenously” for “were orally”, “each mouse/rat/dog,” for “each rat/dog,”, “and 24” for “and up to 96”, “diluted samples” for “diluted sample”

[6] = Oral dosing of AG-10 forms, plasma pharmacokinetics by LC-MS/MS; assay type: in vivo, Dog; conditions: for Exposure (0-24 h) / Cmax: dog
Protocol: as §1

Bioavailability ([1]; dogs): high bioavailability
Bioavailability ([1]; mice): high bioavailability
Bioavailability ([1]; rats): high bioavailability
Bioavailability [2]: high bioavailability
Structure (SMILES): Cc1n[nH]c(C)c1CCCOc1cc(C(=O)O)ccc1F [AG-10, 3-(3-(3,5-dimethyl-1H-pyrazol-4-yl)propoxy)-4-fluorobenzoic acid]

Cmax ([3]; in vivo, rat, 200 mg/kg): 216000 ng/mL and 741 µM
Exposure (0-24 h) ([3]; rat, 200 mg/kg): 395,503 ng · h/mL
Cmax [4]: 5960 ng/mL and 20.4 µM
Cmax ([5]; in vivo, rat, 1 mg/kg, the Cmax reported is an extrapolated C0, read-out: Cmax (extrapolated C0)): 4280 ng/mL and 14.6 µM
Exposure (0-24 h) ([6]; 20 mg/kg): 69,088 ng · h/mL
Exposure (0-24 h) ([6]; 25 mg/kg): 128,374 ng · h/mL
Exposure (0-24 h) ([6]; 60 mg/kg): 155,814 ng · h/mL
Exposure (0-24 h) ([6]; 200 mg/kg): 1,020,640 ng · h/mL
Cmax ([6]; in vivo, 20 mg/kg): 16100 ng/mL and 55.1 µM
Cmax ([6]; in vivo, 25 mg/kg): 25100 ng/mL and 85.8 µM
Cmax ([6]; in vivo, 60 mg/kg): 41800 ng/mL and 143 µM
Cmax ([6]; in vivo, 200 mg/kg): 154000 ng/mL and 528 µM
Structure (SMILES): Cc1n[nH]c(C)c1CCCOc1cc(C(=O)O)ccc1F.Cl [HCl salt, 3-[3-(3,5-dimethyl-1H-pyrazol-4-yl)propoxy]-4-fluorobenzoic acid hydrochloride salt]
Cmax values as compared to the zwitterion and the Na salt ([3]; rats, Table 3 row 3 vs row 1): surprising and significant improvement in Cmax values
Cmax values as compared to the zwitterion ([6]; dogs, Table 3 row 6 vs row 4): surprising and significant improvement in Cmax values

Cmax ([3]; plasma, rat, 200 mg/kg): 26400 ng/mL and 90.3 µM
Cmax ([5]; mouse, 3 mg/kg): 4480 ng/mL and 15.4 µM
Cmax ([5]; plasma, rat, 3.43 mg/kg, read-out: Cmax): 3090 ng/mL and 10.6 µM
Exposure (0-24 h) ([6]; 25 mg/kg): 89,786 ng · h/mL
Cmax ([6]; plasma, 25 mg/kg): 17500 ng/mL and 60 µM
Structure (SMILES): Cc1n[nH]c(C)c1CCCOc1cc(C(=O)O)ccc1F [Zwitterion, 3-(3-(3,5-dimethyl-1H-pyrazol-4-yl)propoxy)-4-fluorobenzoic acid]
